# Experimental data published in US8268863B2 (priority 2007, dated 2012).
# How the values were obtained:
# human mu opioid receptor [1] = molecular target: T1, human mu opioid receptor (Homo sapiens, UniProt P35372); test: Human mu GTP-Eu nucleotide exchange assay (agonist mediated activation); type: biochemical; settings: bound GTP-Eu relative to DAMGO (IA=100), CHO-K1 membranes expressing human mu opioid receptor; read-out: intrinsic activity (IA)
# T1 construct: host or cells: CHO-K1
# human mu opioid receptor [2] = molecular target: T1, human mu opioid receptor; test: Radioligand binding assay, human mu opioid receptor; settings: [3H]-Diprenorphine displacement, membranes of CHO-K1 cells; read-out: pKi at the human mu opioid receptor (converted)
# T1 sequence (P35372 whole entry): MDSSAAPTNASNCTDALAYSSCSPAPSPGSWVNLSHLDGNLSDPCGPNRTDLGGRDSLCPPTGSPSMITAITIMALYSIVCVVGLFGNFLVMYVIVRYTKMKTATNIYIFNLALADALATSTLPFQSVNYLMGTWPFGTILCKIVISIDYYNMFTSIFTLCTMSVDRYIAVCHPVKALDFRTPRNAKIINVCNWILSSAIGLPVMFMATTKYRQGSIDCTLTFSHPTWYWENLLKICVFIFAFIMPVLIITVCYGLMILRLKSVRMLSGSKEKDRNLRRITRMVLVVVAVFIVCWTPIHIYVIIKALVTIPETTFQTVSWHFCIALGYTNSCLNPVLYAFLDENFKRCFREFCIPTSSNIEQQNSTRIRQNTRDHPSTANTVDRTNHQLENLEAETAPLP
SMILES,Emax (human mu opioid receptor [1]) [%],Ki (human mu opioid receptor [2]) [nM]
CS(=O)(=O)NC(CCN1[C@@H]2CC[C@H]1C[C@@H](c1cccc(C(N)=O)c1)C2)c1ccccc1 (some centres unmarked) [Example 104],≥ 30,–
"Cc1ccc(S(=O)(=O)NC(CC2CCCCC2)CN2[C@@H]3CC[C@H]2C[C@@H](c2cccc(O)c2)C3)cc1 (stereo partly drawn) [Example 5, N-{1-cyclohexylmethyl-2-[3-endo-(3-hydroxy-phenyl)-8-azabicyclo[3.2.1]oct-8-yl]ethyl}-4-methyl-benzenesulfonamide]",2,0.794
"CC(C)C[C@H](NC(=O)C(Cc1ccccc1)CN1[C@@H]2CC[C@H]1C[C@@H](c1cccc(C(N)=O)c1)C2)C(N)=O (mixture of isomers) [Example 6, 3-endo-{8-[(S)-2-(S)-1-carbamoyl-3-methyl-butylcarbamoyl)-3-phenylpropyl]-8-azabicyclo[3.2.1]oct-3-yl}benzamide and 3-endo-{8-[(R)-2-((S)-1-carbamoyl-3-methylbutylcarbamoyl)-3-phenyl-propyl]-8-azabicyclo[3.2.1]oct-3-yl}benzamide]",-7,0.0631
"O=C(CO)NC(CC1CCCCC1)CN1[C@@H]2CC[C@H]1C[C@@H](c1cccc(O)c1)C2 (stereo partly drawn) [Example 2, N-{1-cyclohexylmethyl-2-[3-endo-(3-hydroxy-phenyl)-8-azabicyclo[3.2.1]oct-8-yl]ethyl}-2-hydroxyacetamide]",24,0.0631
"NC(=O)CCC(=O)NC(CC1CCCCC1)CN1[C@@H]2CC[C@H]1C[C@@H](c1cccc(O)c1)C2 (stereo partly drawn) [Example 3, N-{1-cyclohexylmethyl-2-[3-endo-(3-hydroxy-phenyl)-8-azabicyclo[3.2.1]oct-8-yl]ethyl}succinamide]",3,0.126
O=C(NC(CCc1ccccc1)CN1[C@@H]2CC[C@H]1C[C@@H](c1cccc(O)c1)C2)c1ccccc1 (some centres unmarked) [Example 76],≥ 30,–
"O=C(NCC1CCCCC1)NC(CC1CCCCC1)CN1[C@@H]2CC[C@H]1C[C@@H](c1cccc(O)c1)C2 (stereo partly drawn) [Example 4, 1-cyclohexylmethyl-3-{1-cyclohexylmethyl-2-[3-endo-(3-hydroxyphenyl)-8-azabicyclo[3.2.1]oct-8-yl]ethyl}urea]",-3,0.1
"O=C(NC(CC1CCCCC1)CN1[C@@H]2CC[C@H]1C[C@@H](c1cccc(O)c1)C2)C1CCCCC1 (stereo partly drawn) [Example 1, cyclohexanecarboxylic acid {1-cyclohexylmethyl-2-[3-endo-(3-hydroxyphenyl)-8-azabicyclo[3.2.1]oct-8-yl]-ethyl}amide]",-9,0.0631
